Measurements: ChEMBL document CHEMBL1201862, “PubChem BioAssay data set” (2004)
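Growth conditions: 96-well plates. Treatment: test compound, 48 hours, 5 concentrations. Analysis: linear interpolation between bracketing concentrations; unreached endpoints set to highest concentration. Abbreviation: GI50, concentration required for 50% inhibition of growth.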 Activity calls are given as the source filed them. No stated cut-off is given here; in the data, active = GI50 up to about 1.1 µM and inactive = higher.

Tests used:
Experiment in all cases: NCI-60 cell line screen, 48 h
HCT-116 = test system: HCT-116
T47D = test system: T47D
KM12 = test system: KM12
RXF 393 = test system: RXF 393
LOX IMVI = test system: LOX IMVI
OVCAR-3 = test system: OVCAR-3
SK-MEL-28 = test system: SK-MEL-28
RPMI-8226 = test system: RPMI-8226
SNB-75 = test system: SNB-75
SF-268 = test system: SF-268
MDA-MB-435 = test system: MDA-MB-435
HOP-92 = test system: HOP-92
HL-60 = test system: HL-60
NCI-H522 = test system: NCI-H522
COLO 205 = test system: COLO 205
UACC-257 = test system: UACC-257
OVCAR-8 = test system: OVCAR-8
SW-620 = test system: SW-620
HOP-62 = test system: HOP-62
HT-29 = test system: HT-29
NCI/ADR-RES = test system: NCI/ADR-RES
K562 = test system: K562
HCC 2998 = test system: HCC 2998
Malme-3M = test system: Malme-3M
SK-MEL-5 = test system: SK-MEL-5
PC-3 = test system: PC-3
786-0 = test system: 786-0
MDA-N = test system: MDA-N
SNB-19 = test system: SNB-19
HCT-15 = test system: HCT-15
CCRF-CEM = test system: CCRF-CEM
DU-145 = test system: DU-145
U-251 = test system: U-251
A498 = test system: A498
NCI-H460 = test system: NCI-H460
UO-31 = test system: UO-31
MCF7 = test system: MCF7
NCI-H226 = test system: NCI-H226
UACC-62 = test system: UACC-62
MOLT-4 = test system: MOLT-4
OVCAR-5 = test system: OVCAR-5
CAKI-1 = test system: CAKI-1
NCI-H23 = test system: NCI-H23
SK-MEL-2 = test system: SK-MEL-2
ACHN = test system: ACHN
IGROV-1 = test system: IGROV-1
SK-OV-3 = test system: SK-OV-3
MDA-MB-231 = test system: MDA-MB-231
Hs-578T = test system: Hs-578T
SN12C = test system: SN12C
SR = test system: SR
OVCAR-4 = test system: OVCAR-4
A549 = test system: A549
EKVX = test system: EKVX
SF-295 = test system: SF-295
M14 = test system: M14
SF-539 = test system: SF-539
TK-10 = test system: TK-10

O=C(NCCCl)Nc1ccccc1
GI50 (HCT-116): > 100 µM (inactive) | GI50 (T47D): > 100 µM (inactive) | GI50 (KM12): > 100 µM (inactive) | GI50 (RXF 393): > 100 µM (inactive) | GI50 (LOX IMVI): > 100 µM (inactive) | GI50 (OVCAR-3): > 100 µM (inactive) | GI50 (SK-MEL-28): > 100 µM (inactive) | GI50 (RPMI-8226): > 100 µM (inactive) | GI50 (SNB-75): > 100 µM (inactive) | GI50 (SF-268): > 100 µM (inactive) | GI50 (MDA-MB-435): > 100 µM (inactive) | GI50 (HOP-92): > 100 µM (inactive) | GI50 (HL-60): > 100 µM (inactive) | GI50 (NCI-H522): > 100 µM (inactive) | GI50 (COLO 205): > 100 µM (inactive) | GI50 (UACC-257): > 100 µM (inactive) | GI50 (OVCAR-8): > 100 µM (inactive) | GI50 (SW-620): > 100 µM (inactive) | GI50 (HOP-62): > 100 µM (inactive) | GI50 (HT-29): > 100 µM (inactive) | GI50 (NCI/ADR-RES): > 100 µM (inactive) | GI50 (K562): > 100 µM (inactive) | GI50 (HCC 2998): > 100 µM (inactive) | GI50 (Malme-3M): > 100 µM (inactive) | GI50 (SK-MEL-5): > 100 µM (inactive) | GI50 (PC-3): > 100 µM (inactive) | GI50 (786-0): > 100 µM (inactive) | GI50 (MDA-N): > 100 µM (inactive) | GI50 (SNB-19): > 100 µM (inactive) | GI50 (HCT-15): > 100 µM | GI50 (CCRF-CEM): > 100 µM (inactive) | GI50 (DU-145): > 100 µM (inactive) | GI50 (U-251): > 100 µM (inactive) | GI50 (A498): > 100 µM (inactive) | GI50 (NCI-H460): > 100 µM (inactive) | GI50 (UO-31): > 100 µM (inactive) | GI50 (MCF7): > 100 µM (inactive) | GI50 (NCI-H226): > 100 µM (inactive) | GI50 (UACC-62): > 100 µM (inactive) | GI50 (MOLT-4): > 100 µM (inactive) | GI50 (OVCAR-5): > 100 µM (inactive) | GI50 (CAKI-1): > 100 µM (inactive) | GI50 (NCI-H23): > 100 µM (inactive) | GI50 (SK-MEL-2): > 100 µM (inactive) | GI50 (ACHN): > 100 µM (inactive) | GI50 (IGROV-1): > 100 µM (inactive) | GI50 (SK-OV-3): > 100 µM (inactive) | GI50 (MDA-MB-231): > 100 µM (inactive) | GI50 (Hs-578T): > 100 µM (inactive) | GI50 (SN12C): > 100 µM (inactive) | GI50 (SR): > 100 µM (inactive) | GI50 (OVCAR-4): > 100 µM (inactive) | GI50 (A549): > 100 µM (inactive) | GI50 (EKVX): > 100 µM (inactive) | GI50 (SF-295): > 100 µM (inactive)

O=C1CCCc2cc3c(cc21)CC1(C3)Cc2ccc3c(c2C1)C(=O)CCC3 (configuration not stated)
GI50 (HCT-116): 12.2 µM (inactive) | GI50 (T47D): 24.1 µM (inactive) | GI50 (KM12): 14 µM (inactive) | GI50 (RXF 393): 37.1 µM (inactive) | GI50 (LOX IMVI): 11.7 µM (inactive) | GI50 (OVCAR-3): 15.9 µM (inactive) | GI50 (SK-MEL-28): 26.1 µM (inactive) | GI50 (RPMI-8226): 7.59 µM (inactive) | GI50 (M14): 12.7 µM (inactive) | GI50 (SNB-75): 15.5 µM (inactive) | GI50 (SF-268): 21.9 µM (inactive) | GI50 (MDA-MB-435): 4.91 µM (inactive) | GI50 (SF-539): 28.3 µM (inactive) | GI50 (HOP-92): 21.3 µM (inactive) | GI50 (HL-60): 5.18 µM (inactive) | GI50 (NCI-H522): 20.9 µM (inactive) | GI50 (COLO 205): 14.4 µM (inactive) | GI50 (UACC-257): 5.24 µM (inactive) | GI50 (OVCAR-8): 16.4 µM (inactive) | GI50 (SW-620): 15.6 µM (inactive) | GI50 (HOP-62): 67.9 µM (inactive) | GI50 (HT-29): 16.3 µM (inactive) | GI50 (NCI/ADR-RES): 6.25 µM (inactive) | GI50 (K562): 3.31 µM (inactive) | GI50 (HCC 2998): 71.8 µM (inactive) | GI50 (Malme-3M): 9.4 µM (inactive) | GI50 (SK-MEL-5): 2.2 µM (inactive) | GI50 (PC-3): 21.7 µM (inactive) | GI50 (786-0): 30.7 µM (inactive) | GI50 (MDA-N): 5.18 µM (inactive) | GI50 (SNB-19): 67.6 µM (inactive) | GI50 (HCT-15): 45.2 µM | GI50 (CCRF-CEM): 6.92 µM (inactive) | GI50 (DU-145): 39.8 µM (inactive) | GI50 (U-251): 39.2 µM (inactive) | GI50 (A498): 41.2 µM (inactive) | GI50 (NCI-H460): 26.5 µM (inactive) | GI50 (UO-31): 32.4 µM (inactive) | GI50 (MCF7): 12.2 µM (inactive) | GI50 (NCI-H226): 6.38 µM (inactive) | GI50 (MOLT-4): 4.12 µM (inactive) | GI50 (OVCAR-5): > 100 µM (inactive) | GI50 (CAKI-1): 10.5 µM (inactive) | GI50 (NCI-H23): 22.5 µM (inactive) | GI50 (SK-MEL-2): 24.2 µM (inactive) | GI50 (ACHN): 5.18 µM (inactive) | GI50 (IGROV-1): 20.5 µM (inactive) | GI50 (SK-OV-3): > 100 µM (inactive) | GI50 (MDA-MB-231): 29.2 µM (inactive) | GI50 (Hs-578T): 65.6 µM (inactive) | GI50 (SN12C): 23.6 µM (inactive) | GI50 (SR): 7.45 µM (inactive) | GI50 (OVCAR-4): 13.9 µM (inactive) | GI50 (A549): 21.1 µM (inactive) | GI50 (TK-10): 23.9 µM (inactive) | GI50 (EKVX): 46.7 µM (inactive) | GI50 (SF-295): 18.5 µM (inactive)
